In the test the test system is amyloid β production in transfected H4 (human neuroglioma) cells stably expressing APP constructs. Put plainly: In vitro cell-based assay of inhibitors of amyloid β production (ELISA). To be noted: amyloid β in medium by ELISA, read-out: ACTIVITY (IC50, inhibition of amyloid β production). In outline: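 Transfected H4 cells stably expressing wild-type or variant APP were exposed to compounds (initial screen 10-100 μM) for about 16 h. Secreted Aβ in the medium was quantified by sandwich ELISA (C-terminal-specific monoclonal capture, N-terminal-specific polyclonal detection) against an Aβ standard curve; dose-response runs followed for actives.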
(In an ELISA, binding on a coated surface is turned into a signal by an enzyme label.)

Where [1] appears, read: Homo sapiens, 16 h, transfected H4 cells stably expressing APP constructs, approximately 16 hours incubation.
[2] abbreviates: transfected H4 cells stably expressing APP constructs, approximately 16 hours incubation.
Where [3] appears, read: Homo sapiens, 16 h, transfected H4 cells stably expressing APP, approximately 16 hours incubation.
[4] abbreviates: transfected H4 cells stably expressing APP, approx. 16 h incubation.
Setting [5] is: transfected H4 cells stably expressing APP, approximately 16 hours incubation.

Counter-ions that a name gives are not always drawn. Like-named read-outs stand apart in the source and are kept apart here. Where only a bound is given, the exact number is not on record here.

For orientation: IC50 means the concentration needed to halve the response being measured.

`CC(CC[C@@H](C)N(c1cc(Cl)ccc1Cl)S(=O)(=O)c1ccc(Cl)cc1)N1CCSC1C(=O)O` (stereo partly drawn) [Example 1106, 4-chloro-N-(2,5-dichlorophenyl)-N-[4-(2-carboxy-3-thiazolidinyl)-1(R)-methylpentyl]benzenesulfonamide]: the 50% inhibitory concentration (IC50) under setting [1] is not above 25 nM.

Regarding `CC(C)[S+]([O-])CCC[C@@H](C)N(c1cc(Cl)ccc1Cl)S(=O)(=O)c1ccc(Cl)cc1` (some centres unmarked) [Example 1169], the IC50 under setting [2] was not above 25 nM.

For the compound `O=S(=O)(c1ccc(Cl)cc1)N(Cc1ccccc1OCCCN1CCCCC1)c1ccccc1Br` [Example 866, N-(2-bromophenyl)-4-chloro-N-{2-[3-(1-piperidinyl)propoxy]benzyl}benzenesulfonamide hydrochloride], the concentration for half-maximal inhibition (IC50) under setting [3] was 100 to 500 nM.

Turning to “(2E)-N-{2-[2-(1-{[(4-chlorophenyl)sulfonyl]-2,5-difluoroanilino}ethyl)phenoxy]ethyl}-N-ethyl-2-butenamide [Example 649]”, the concentration for half-maximal inhibition (IC50) under setting [4] was in the range of 100 to 500 nM.

Consider `O=[N+]([O-])c1ccc(CN(Cc2ccccc2OCCCN2CCCCC2)S(=O)(=O)c2ccc(Cl)cc2)cc1` [Example 998, 4-chloro-N-(4-nitrobenzyl)-N-{2-[3-(1-piperidinyl)propoxy]benzyl}benzenesulfonamide hydrochloride], for which, under setting [3], the IC50 was more than 500 nM.

As to `CN(CCCOc1ccccc1CN(c1cc(F)ccc1F)S(=O)(=O)c1ccc(Cl)cc1)C(=O)c1cc([N+](=O)[O-])cc([N+](=O)[O-])c1` [Example 958, N-{3-[2-({[(4-chlorophenyl)sulfonyl]-2,5-difluoroanilino}methyl)phenoxy]propyl}-N-methyl-3,5-dinitrobenzamide], the 50% inhibitory concentration (IC50) under setting [5] was more than 500 nM.

For “4-chloro-N-{3-[2-(1-{[(4-chlorophenyl)sulfonyl]-2,5-difluoroanilino}ethyl)phenoxy]propyl}benzamide [Example 811]”, the IC50 under setting [5] was in the range of 100 to 500 nM.

On to `COc1ccc(C(=O)N2CCCCC2CCOc2ccccc2CN(c2cc(F)ccc2F)S(=O)(=O)c2ccc(Cl)cc2)cc1OC` (centres unmarked) [Example 890, 4-chloro-N-(2,5-difluorophenyl)-N-(2-{2-[1-(3,4-dimethoxybenzoyl)-2-piperidinyl]ethoxy}benzyl)benzenesulfonamide], for which the IC50 under setting [3] is more than 500 nM.

Turning to `C[C@H](CCC[S+]([O-])C(C)(C)C)N(c1cc(Cl)ccc1CO)S(=O)(=O)c1ccc(Cl)cc1` (some centres unmarked) [Example 1221], under setting [2], the IC50 was not above 25 nM.

With `O=S(=O)(c1ccccc1)N(Cc1ccccc1CCCO)c1ccccc1` [Example 1088, N-[2-(3-hydroxypropyl)benzyl]-N-phenylbenzenesulfonamide], the IC50 under setting [1] was more than 10000 nM.

For the compound `COC(=O)[C@H](CS(=O)(=O)Cc1cc(F)ccc1[C@@H](C)N(c1cc(F)ccc1F)S(=O)(=O)c1ccc(Cl)cc1)NC(=O)OC(C)(C)C` [Example 469, Methyl (2R)-2-[(tert-butoxycarbonyl)amino]-3-{[2-((1R)-1-{[(4-chlorophenyl)sulfonyl]-2,5-difluoroanilino}ethyl)-5-fluorobenzyl]sulfonyl}propanoate], the concentration for half-maximal inhibition (IC50) (transfected H4 cells stably expressing APP, approximately 16 hours incubation, Table B) is 50 to 100 nM.

For the compound `C[C@H](CCCS(C)(=O)=O)N(c1cc(Cl)ccc1Cl)S(=O)(=O)c1ccc(Cl)cc1` [Example 1162, 4-chloro-N-[2,5-dichlorophenyl]-N-[1(R)-methyl-(4-methylsulfonyl]butyl]benzenesulfonamide], the IC50 under setting [2] is not above 25 nM.

As for `C[C@H](c1ccc(F)cc1COC(=O)NCc1ccco1)N(c1cc(F)ccc1F)S(=O)(=O)c1ccc(Cl)cc1` [Example 691, 2-((1R)-1-{[(4-chlorophenyl)sulfonyl]-2,5-difluoroanilino}ethyl)-5-fluorobenzyl 2-furylmethylcarbamate], under setting [4], the half-maximal inhibitory concentration (IC50) lay within 100 to 500 nM.

For the compound `O=S(=O)(c1ccc(Cl)cc1)N(Cc1ccccc1OCCC1CCCN1)c1ccccc1` (centres unmarked) [Example 963, 4-chloro-N-phenyl-N-{2-[2-(2-pyrrolidinyl)ethoxy]benzyl}benzenesulfonamide hydrochloride], the half-inhibitory concentration (IC50) under setting [3] is more than 500 nM.

For the origin of these results see patent US6967196B1, “Sulfonamide compounds and uses thereof” (Bristol-Myers Squibb Company, priority 1999, dated 2005).
